The source of these data is ChEMBL document CHEMBL3739376, “Synthesis and biological evaluation of N-(4-phenylthiazol-2-yl)cinnamamide derivatives as novel potential anti-tumor agents” (Medchemcomm, 2015).

SMILES strings stand for the structures. Activity calls are given as the source filed them. No cut-off for these calls is given here.

In assay [1] the test system is K562. Put plainly: Cytotoxicity against human K562 cells assessed as inhibition of cell proliferation after 96 hrs by MTT assay. The format is functional, cell-based. Conditions: K562, 96 h. Background: Formazan colour is commonly taken as a measure of viable cells.
Assay [2] is described as follows: Cytotoxicity against human OCI-LY1 cells assessed as inhibition of cell proliferation after 96 hrs by MTT assay. In kind it is functional, cell-based. The conditions noted are these: OCI-Ly1, 96 h.
Assay [3] can be described thus: Cytotoxicity against human LO2 cells assessed as inhibition of cell proliferation after 96 hrs by MTT assay. In kind it is cell-based. The conditions noted are these: L02, 96 h.
The nature of assay [4]: Cytotoxicity against human MV411 cells assessed as inhibition of cell proliferation after 96 hrs by MTT assay. In kind it is functional, cell-based. Conditions: MV4-11, 96 h.
The next assay has as its system MCF7. Put plainly: Cytotoxicity against human MCF7 cells assessed as inhibition of cell proliferation after 96 hrs by MTT assay. The conditions noted are these: MCF7, 96 h. In kind it is functional, cell-based.
The subject of assay [5] is Jurkat. Put plainly: Cytotoxicity against human Jurkat cells assessed as inhibition of cell proliferation after 96 hrs by MTT assay. In kind it is functional, cell-based.
Assay [6] concerns A549. The assay is described as follows: Cytotoxicity against human A549 cells assessed as inhibition of cell proliferation after 96 hrs by MTT assay. In kind it is functional, cell-based. The conditions noted are these: A549, 96 h.
The test system of a further assay is Vero. Put plainly: Cytotoxicity against african green monkey Vero cells assessed as inhibition of cell proliferation after 96 hrs by MTT assay. In kind it is cell-based. The conditions noted are these: Chlorocebus sabaeus.
Another assay deals with HEK293. Put plainly: Cytotoxicity against HEK293 cells assessed as inhibition of cell proliferation after 96 hrs by MTT assay. In kind it is cell-based. Conditions: Homo sapiens, HEK293, 96 h.
Assay [7] is described as follows: Cytotoxicity against human Bel7402 cells assessed as inhibition of cell proliferation after 96 hrs by MTT assay. The format is functional, cell-based. Conditions: Bel-7402, 96 h.
For the next assay, the system named is MDA-MB-468. Put plainly: Cytotoxicity against human MDA-MB-468 cells assessed as inhibition of cell proliferation after 96 hrs by MTT assay. In kind it is functional, cell-based. Conditions: MDA-MB-468, 96 h.
Assay [8] deals with Bel-7402. The assay is described as follows: Induction of apoptosis in human Bel7402 cells at 0.37 uM after 48 hrs by propidium iodide staining-based fluorescence microscopic analysis. The format is functional.
Assay [9] relates to A549. The assay is described as follows: Induction of apoptosis in human A549 cells at 3.3 uM after 48 hrs by propidium iodide staining-based fluorescence microscopic analysis. In kind it is functional.
Assay [10] concerns Bel-7402. The assay is described as follows: Induction of apoptosis in human Bel7402 cells at 10 uM after 48 hrs by propidium iodide staining-based fluorescence microscopic analysis. The format is functional.
Assay [11] has as its system Bel-7402. Put plainly: Induction of apoptosis in human Bel7402 cells after 48 hrs by propidium iodide staining-based fluorescence microscopic analysis. The format is functional, cell-based.
Assay [12] concerns Bel-7402. Put plainly: Induction of apoptosis in human Bel7402 cells assessed as condensed nuclei at 0.37 to 10 uM after 48 hrs by […] staining-based fluorescence microscopic analysis. The format is functional, cell-based.
For assay [13], the system named is K562. The assay is described as follows: Induction of apoptosis in human K562 cells at 3.3 uM after 48 hrs by propidium iodide staining-based fluorescence microscopic analysis. In kind it is functional.
Assay [14] deals with Jurkat. Put plainly: Induction of apoptosis in human Jurkat cells at 3.3 uM after 48 hrs by propidium iodide staining-based fluorescence microscopic analysis. In kind it is functional.
For assay [15], the system named is Bel-7402. Put plainly: Induction of apoptosis in human Bel7402 cells at 1.1 uM after 48 hrs by propidium iodide staining-based fluorescence microscopic analysis. In kind it is functional.
The subject of assay [16] is Bel-7402. The assay is described as follows: Induction of apoptosis in human Bel7402 cells at 3.3 uM after 48 hrs by propidium iodide staining-based fluorescence microscopic analysis. In kind it is functional.

The IC50 is the concentration needed to halve the response being measured. For the compound `COc1cc(/C=C/C(=O)Nc2nc(-c3c(C)cc(C)cc3C)cs2)cc(OC)c1OC`, in the assay with K562 [1], the IC50 turned out to be 11.8 µM.

Take `CCOc1cc(C)c(-c2csc(NC(=O)/C=C/c3ccc(N4CCOCC4)cc3)n2)c(C)c1`: in the assay on K562 [1], the IC50 was determined as 2.09 µM.

Consider `O=C(/C=C/c1ccc(N2CCOCC2)cc1)Nc1nc(-c2ccccc2)cs1`, for which, in the assay on K562 [1], the IC50 turned out to be 12.6 µM.

Turning to `Cc1cc(C)c(-c2csc(NC(=O)/C=C/c3ccc(Br)cc3)n2)c(C)c1`, the IC50 in the assay on K562 [1] was determined as 4.59 µM.

Regarding `Cc1ccccc1-c1csc(NC(=O)/C=C/c2ccc(N3CCOCC3)cc2)n1`, the IC50 in the assay on K562 [1] came to 3.74 µM.

Regarding `Cc1cccc(-c2csc(NC(=O)/C=C/c3ccc(N4CCOCC4)cc3)n2)c1`, the IC50 with K562 [1] was found to be 7.51 µM.

Take `COc1ccccc1-c1csc(NC(=O)/C=C/c2ccc(N3CCOCC3)cc2)n1`: the IC50 in the assay with K562 [1] is > 90 µM.

Consider `O=C(/C=C/c1ccc(N2CCOCC2)cc1)Nc1nc(-c2ccccc2F)cs1`, for which, in the assay with K562 [1], the IC50 came to 4.18 µM.

For `Cc1cc(C)c(-c2csc(NC(=O)/C=C/c3ccc(C4CC4)cc3)n2)c(C)c1`, the IC50 in assay [2] was 1.63 µM; in assay [3], > 90 µM; in assay [4], 1.41 µM; in the assay with MCF7, 7.76 µM; in the assay on Jurkat [5], 1.24 µM; in the assay with A549 [6] it was 1.17 µM. Further, the IC50 in the assay on K562 [1] was 0.38 µM; in the assay with Vero, > 90 µM; in the assay with HEK293, > 90 µM; in assay [7] it was 6.58 µM; in the assay on MDA-MB-468, 15.7 µM.

On to `Cc1cc(C)c(-c2csc(NC(=O)/C=C/c3ccc(C(C)(C)C)cc3)n2)c(C)c1`, for which the IC50 was 1.54 µM in assay [2]; > 90 µM in assay [3]; 0.11 µM in assay [4]; > 30 µM in the assay with MCF7; 0.035 µM in the assay on Jurkat [5]; 0.27 µM with A549 [6]. For the same compound, the IC50 in the assay on K562 [1] was 0.18 µM; in the assay with Vero, > 90 µM; in the assay with HEK293, > 90 µM; in assay [7] it was 0.74 µM; in the assay on MDA-MB-468 it was > 30 µM. In addition, the Activity in the assay with Bel-7402 [8] was 5.37%; in the assay on A549 [9] it was 23.13%; in the assay on Bel-7402 [10] it was 61.35%; in the assay on Bel-7402 [11] it was “Dose-dependent effect”; with K562 [13] it was 21.04%; with Jurkat [14], 14.64%. For the same compound, the Activity with Bel-7402 [15] amounted to 25.37%; in the assay on Bel-7402 [16] it was 48.15%. The outcome with Bel-7402 [12] was Active.

On to `COc1cc(C)c(-c2csc(NC(=O)/C=C/c3ccc(N4CCOCC4)cc3)n2)c(C)c1`, for which the IC50 in assay [2] was > 30 µM; in assay [3], > 90 µM; in [4] it was 2.73 µM; in the assay on MCF7, 1.45 µM; with Jurkat [5] it was 1.24 µM; in the assay with A549 [6] it was 1.56 µM. Also, the IC50 in the assay on K562 [1] is 1 µM; in the assay with Vero, > 90 µM; in the assay with HEK293, > 90 µM; in assay [7], 9.65 µM; with MDA-MB-468, > 30 µM.

Turning to `Cc1cc(C)c(-c2csc(NC(=O)/C=C/c3ccc(C(F)(F)F)cc3)n2)c(C)c1`, the IC50 in [2] was 3.69 µM; in assay [3], > 90 µM; in [4], 3.65 µM; in the assay with MCF7 it was > 30 µM; in the assay on Jurkat [5] it was 1.15 µM; in the assay on A549 [6], 0.2 µM. Besides, the IC50 in the assay on K562 [1] was 0.48 µM; in the assay with Vero, > 90 µM; in the assay on HEK293, > 90 µM; in assay [7], 34.1 µM; in the assay on MDA-MB-468 it was 1.53 µM.

As for `O=C(/C=C/c1ccc(N2CCOCC2)cc1)Nc1nc(-c2cccc(F)c2)cs1`, the IC50 in the assay with K562 [1] is 5.73 µM.

`Cc1ccc(/C=C/C(=O)Nc2nc(-c3c(C)cc(C)cc3C)cs2)cc1`: the IC50 in the assay on K562 [1] is 7.88 µM.

On to `Cc1cc(C)cc(-c2csc(NC(=O)/C=C/c3ccc(N4CCOCC4)cc3)n2)c1`, for which the IC50 in the assay with K562 [1] is > 90 µM.

With `COc1cccc(-c2csc(NC(=O)/C=C/c3ccc(N4CCOCC4)cc3)n2)c1`, the IC50 with K562 [1] was 25.2 µM.

On to `O=C(/C=C/c1ccc(N2CCOCC2)cc1)Nc1nc(-c2c(F)cc(F)cc2F)cs1`, for which the IC50 in the assay on K562 [1] is 5.15 µM.

With `Cc1cc(C)c(-c2csc(NC(=O)/C=C/c3ccc(N4CCCCC4)cc3)n2)c(C)c1`, the IC50 in the assay with K562 [1] was determined as 4.06 µM.

Take `Cc1cc(C)c(-c2csc(NC(=O)/C=C/c3ccc([N+](=O)[O-])cc3)n2)c(C)c1`: the IC50 in the assay with K562 [1] was 32.2 µM.

For the compound `Cc1ccc(-c2csc(NC(=O)/C=C/c3ccc(N4CCOCC4)cc3)n2)c(C)c1`, the IC50 in the assay on K562 [1] turned out to be 5.38 µM.

On to `Cc1cc(C)c(-c2csc(NC(=O)/C=C/c3ccc(N4CCOCC4)cc3)n2)c(C)c1`, for which the IC50 in assay [2] was 11.7 µM; in assay [3] it was > 90 µM; in [4], 6.42 µM; with MCF7, 20 µM; with Jurkat [5] it was 9.05 µM; in the assay on A549 [6], 4.29 µM. Moreover, the IC50 with K562 [1] is 0.61 µM; in the assay on Vero, > 90 µM; in the assay with HEK293, > 90 µM; in assay [7], 10.6 µM; in the assay on MDA-MB-468, > 30 µM.

With `CC(=O)O[C@H]1C(=O)[C@@]2(C)[C@H]([C@H](OC(=O)c3ccccc3)[C@]3(O)C[C@H](OC(=O)[C@H](O)[C@@H](NC(=O)c4ccccc4)c4ccccc4)C(C)=C1C3(C)C)[C@]1(OC(C)=O)CO[C@@H]1C[C@@H]2O` [PACLITAXEL], the IC50 in [2] was 0.18 µM; in assay [4] it was 0.75 µM; with Jurkat [5] it was 0.69 µM; in the assay on A549 [6], 0.74 µM; in the assay on K562 [1] it was 1.26 µM; in assay [7] it was > 10 µM. Moreover, the IC50 in the assay with MDA-MB-468 stood at 0.31 µM.

In the case of `COc1cc(F)c(-c2csc(NC(=O)/C=C/c3ccc(N4CCOCC4)cc3)n2)c(F)c1`, the IC50 in the assay with K562 [1] came out at 30.3 µM.

On to `COCCOc1ccc(/C=C/C(=O)Nc2nc(-c3c(C)cc(C)cc3C)cs2)cc1`, for which the IC50 with K562 [1] came to 1.49 µM.

As for `Cc1ccc(-c2csc(NC(=O)/C=C/c3ccc(N4CCOCC4)cc3)n2)cc1`, the IC50 in the assay with K562 [1] is > 90 µM.

For `Cc1cc(C)c(-c2csc(NC(=O)/C=C/c3ccccc3)n2)c(C)c1`, the IC50 in the assay with K562 [1] stood at 40.4 µM.

As for `Cc1cc(C)c(-c2csc(NC(=O)/C=C/c3ccc(F)cc3)n2)c(C)c1`, in the assay on K562 [1], the concentration for half-maximal inhibition (IC50) worked out at 14 µM.

For the compound `COc1ccc(/C=C/C(=O)Nc2nc(-c3c(C)cc(C)cc3C)cs2)cc1`, in the assay on K562 [1], the IC50 worked out at 4.16 µM.

`Cc1cc(C)c(-c2csc(NC(=O)/C=C/c3ccncc3)n2)c(C)c1`: the IC50 with K562 [1] came to 9.39 µM.

For `Cc1cc(C)c(-c2csc(NC(=O)/C=C/c3ccc(Cl)c(C(F)(F)F)c3)n2)c(C)c1`, the IC50 with K562 [1] is 3.06 µM.

`CCOc1ccc(/C=C/C(=O)Nc2nc(-c3c(C)cc(C)cc3C)cs2)cc1`: the IC50 in the assay on K562 [1] is 2.48 µM.

Turning to `COc1ccc(-c2csc(NC(=O)/C=C/c3ccc(N4CCOCC4)cc3)n2)cc1`, the IC50 in the assay with K562 [1] is 14.6 µM.

Turning to `O=C(/C=C/c1ccc(N2CCOCC2)cc1)Nc1nc(-c2ccc(F)cc2)cs1`, the IC50 with K562 [1] was found to be 7.3 µM.
